Data set [1] has as its target Phosphodiesterase 4 (Cavia porcellus). The experiment in a line: Binding affinity against PDE4 was determined using [3H]- rolipram in guinea pig brain membrane binding assay.
Data set [2] shares this target. The experiment in a line: Inhibitory activity against Phosphodiesterase type IV (PDE4) obtained from guinea-pig macrophage was evaluated.
Data set [3] relates to PBMC. The experiment in a line: Inhibition of tumor necrosis factor-alpha release from activated human monocyte cells at 0.3 uM. The format is functional, cell-based.
The subject of data set [4] is PBMC. As to the kind of experiment: Inhibition of tumor necrosis factor-alpha release from activated human monocyte cells in the presence of RP73401. The format is functional, cell-based.
The subject of data set [5] is PBMC. The experiment in a line: Inhibition of tumor necrosis factor-alpha release from activated human monocyte cells. The format is functional, cell-based.
Another data set relates to Mus musculus. As to the kind of experiment: Inhibition of LPS-induced tumor necrosis factor-alpha (TNF-alpha) production in mice at 50 mg/kg. The format is functional.
Data set [6] is described as follows: Area under the curve was evaluated in mice after intravenous administration. The class given is ADME, organism-based. The note with it: mouse, in vivo.
A short description of data set [7]: Area under the curve was evaluated in mice after oral administration. Conditions: mouse, in vivo. The format is ADME, organism-based.
The nature of data set [8]: Volume of distribution was evaluated in mice after intravenous administration. The class given is ADME, organism-based. The note with it: mouse, in vivo, read-out: Vdss.
A short description of data set [9]: Maximum time required to reach Cp max was evaluated in mice after oral administration. The class given is ADME, organism-based. Conditions: mouse, plasma.
Data set [10] in a line: Maximum plasma concentration was evaluated in mice after oral administration. The format is ADME, organism-based. Conditions: mouse, read-out: Cp max.
The nature of data set [11]: Bioavailability was evaluated in mice after oral administration. The note with it: mouse, in vivo, read-out: Bioavailabiility. The class given is ADME, organism-based.
A short description of data set [12]: Terminal half life was evaluated in mice after intravenous administration. Conditions: mouse, in vivo. The format is ADME, organism-based.
The nature of data set [13]: Terminal half life was evaluated in mice after oral administration. The format is ADME, organism-based. The note with it: mouse, in vivo.
Data set [14] in a line: Clearance was evaluated in mice after intravenous administration. The class given is ADME, organism-based. Conditions: mouse, in vivo.
The test system of data set [15] is PBMC. As to the kind of experiment: Inhibition of tumor necrosis factor-alpha release from activated human monocyte cells at […]. The class given is functional, cell-based.

The results in this text go back to ChEMBL document CHEMBL1130889, “The synthesis and biological evaluation of a novel series of indole PDE4 inhibitors I” (Bioorg Med Chem Lett, 1998).

For `COc1ccccc1Cn1cc(C)c2ccc(C(=O)Nc3c(Cl)cncc3Cl)cc21`, the Ki in data set [1] stood at 54 nM. For the same molecule, in [2], the IC50 came out at 80 nM.
Regarding `Cc1c[nH]c2cc(C(=O)Nc3c(Cl)cncc3Cl)ccc12`, in data set [2], the IC50 is on record as 5 nM.
With `Cc1cn(CCN2CCOCC2)c2cc(C(=O)Nc3c(Cl)cncc3Cl)ccc12`, the IC50 in the data set with PBMC [3] turned out to be 28 nM; in the data set on PBMC [4] it was 3 nM; in data set [2], 380 nM. In data set [1], this molecule displayed a Ki of 172 nM.
In the case of `Cc1cn(CC2CCCCC2)c2cc(C(=O)Nc3c(Cl)cncc3Cl)ccc12`, the IC50 amounted to 200 nM in the data set with PBMC [5], 8 nM in the data set with PBMC [4] and 100 nM in [2]. Moreover, the inhibition in vivo at 50 mg/kg with Mus musculus came out at 0%. Moreover, the Ki in data set [1] is 120 nM.
As to `Cc1ccc(S(=O)(=O)n2cc(Cc3ccccc3)c3ccc(C(=O)Nc4c(Cl)cncc4Cl)cc32)cc1`, in data set [1], the Ki is given as > 3745 nM. In data set [2], the IC50 is recorded as > 10000 nM.
For the molecule `Cc1cn(Cc2cccc([N+](=O)[O-])c2)c2cc(C(=O)Nc3c(Cl)cncc3Cl)ccc12`, the IC50 with PBMC [5] was found to be 34 nM; in the data set with PBMC [4], 2 nM; in data set [2], 52 nM. The molecule further showed an inhibition in vivo at 50 mg/kg in the data set on Mus musculus of 16%. In data set [1], this molecule had a Ki of 75 nM.
In the case of `Cc1cn(Cc2ccccc2)c2cc(C(=O)Nc3c(Cl)cncc3Cl)ccc12`, the IC50 in the data set with PBMC [5] stood at 23 nM; in the data set with PBMC [4], 4 nM; in data set [2], 18 nM. Besides, testing at 50 mg/kg in the data set on Mus musculus gave an inhibition in vivo of 0%. The molecule also showed a Ki in data set [1] of 135 nM.
As to `Cc1nc(Cn2cc(C)c3ccc(C(=O)Nc4c(Cl)cncc4Cl)cc32)cs1`, the IC50 in the data set with PBMC [5] was determined as 24.1 nM; in the data set on PBMC [4], 1.5 nM; in [2], 42 nM. Besides, the inhibition in vivo at 50 mg/kg with Mus musculus was found to be 0%. The molecule also gave a Ki in [1] of 24 nM.
On to `Cc1noc(C)c1Cn1cc(C)c2ccc(C(=O)Nc3c(Cl)cncc3Cl)cc21`, for which the results for the IC50 (in the data set with PBMC [5]; in the data set with PBMC [4]; in data set [2]) were 580 nM, 18 nM and 187 nM, respectively. Moreover, 50 mg/kg produced 0% inhibition in vivo in the data set on Mus musculus. Further, in data set [1], the Ki was 75 nM.
In the data set on Mus musculus, `COc1ccc(C(=O)Nc2c(Cl)cncc2Cl)cc1OC1CCCC1` gave an ED50 of 10 mg/kg.
For the molecule `Cc1cn(CCc2ccccc2)c2cc(C(=O)Nc3c(Cl)cncc3Cl)ccc12`, the IC50 in the data set with PBMC [5] was 8 nM; in the data set on PBMC [4], 0.9 nM; in data set [2], 70 nM. The Ki in [1] came out at 280 nM.
`Cc1cn(Cc2ccc(S(C)(=O)=O)cc2)c2cc(C(=O)Nc3c(Cl)cncc3Cl)ccc12`: the values for the IC50 (with PBMC [5]; in the data set with PBMC [4]; in data set [2]) were 134 nM, > 1 nM and 200 nM, respectively. The molecule also gave an inhibition in vivo at 50 mg/kg with Mus musculus of 0%. This molecule also showed a Ki in data set [1] of 300 nM.
For `Cc1ccc(S(=O)(=O)n2cc(C)c3ccc(C(=O)Nc4c(Cl)cncc4Cl)cc32)cc1`, the IC50 in the data set with PBMC [5] is 300 nM; with PBMC [4], 3 nM; in [2] it was 45 nM. Moreover, the inhibition in vivo at 50 mg/kg in the data set with Mus musculus was 0%. Moreover, the Ki in data set [1] is 712 nM.
In the case of `CCc1cn(S(=O)(=O)c2ccc(C)cc2)c2cc(C(=O)Nc3c(Cl)cncc3Cl)ccc12`, the Ki in data set [1] is > 3745 nM. For the same molecule, the IC50 in data set [2] is on record as 2900 nM.
In the case of `COc1cccc(Cn2cc(C)c3ccc(C(=O)Nc4c(Cl)cncc4Cl)cc32)c1`, in data set [1], the Ki worked out at 75 nM. This molecule also returned an IC50 in data set [2] of 60 nM.
Consider `COc1ccc(Cn2cc(C)c3ccc(C(=O)Nc4c(Cl)cncc4Cl)cc32)cc1`, for which the AUC in [6] worked out at 678 ng·h/mL; in data set [7], 25.3 ng·h/mL. For the same molecule, the Vd in data set [8] is 2.4 L/kg. Besides, the time of peak concentration (Tmax) in [9] worked out at 0.5 h. Also, the Cmax in data set [10] worked out at 9.9 ng/mL. In addition, the bioavailability in data set [11] was found to be 3.7%. In addition, the half-life was 2.6 h in data set [12] and 1.7 h in [13]. The IC50 was determined as 60 nM in the data set with PBMC [5] and 3 nM in the data set on PBMC [4]. In the data set with Mus musculus, this molecule showed an inhibition in vivo at 50 mg/kg of 20%. The clearance in [14] was 24.7 mL/min/kg.
Consider `Cc1cn(CCCc2ccccc2)c2cc(C(=O)Nc3c(Cl)cncc3Cl)ccc12`, for which the IC50 in the data set on PBMC [5] came to 168 nM; with PBMC [4] it was 3 nM; in data set [2] it was 25 nM. The same molecule showed an inhibition in vivo at 50 mg/kg in the data set with Mus musculus of 17%. Besides, the Ki in [1] is 41 nM.
With `Cc1cn(Cc2cccc3ccccc23)c2cc(C(=O)Nc3c(Cl)cncc3Cl)ccc12`, the IC50 worked out at 1300 nM in the data set with PBMC [5], 10 nM in the data set on PBMC [4] and 46 nM in data set [2]. In data set [1], this molecule displayed a Ki of 60 nM.
For the molecule `Cc1cn(CCCC2CCCCC2)c2cc(C(=O)Nc3c(Cl)cncc3Cl)ccc12`, the figures for the IC50 (with PBMC [5]; in the data set on PBMC [4]; in data set [2]) were 12 nM, 0.7 nM and 220 nM, respectively. The molecule also came in with an inhibition in vivo at 50 mg/kg in the data set on Mus musculus of 27%. The molecule further returned a Ki in data set [1] of 187 nM.
On the same counts, the results for `Cc1cn(CCC2CCCCC2)c2cc(C(=O)Nc3c(Cl)cncc3Cl)ccc12` are 2 nM, 0.7 nM, 3.2 nM, 0% and 21 nM.
As to `Cc1cn(Cc2ccc3ccccc3c2)c2cc(C(=O)Nc3c(Cl)cncc3Cl)ccc12`, the figures for the IC50 (in the data set with PBMC [5]; in the data set with PBMC [4]; in [2]) were 90 nM, 10.5 nM and 5.2 nM, respectively. 50 mg/kg produced 0% inhibition in vivo in the data set with Mus musculus. For the same molecule, in data set [1], the Ki was found to be 7 nM.
For `CCCCCCCn1cc(C)c2ccc(C(=O)Nc3c(Cl)cncc3Cl)cc21` the same measures were 11 nM, 3 nM, 25 nM, 22% and 66 nM.
With `Cc1cn(C2CCCC2)c2cc(C(=O)Nc3c(Cl)cncc3Cl)ccc12`, the values for the IC50 (with PBMC [4]; in the data set on PBMC [15]; in [2]) were 3 nM, 30 nM and 15 nM, respectively. Also, the Ki in [1] is 374 nM.
For `Cc1cn(Cc2ccc(C(N)=O)cc2)c2cc(C(=O)Nc3c(Cl)cncc3Cl)ccc12`, the figures for the IC50 (in the data set with PBMC [5]; in the data set on PBMC [4]; in data set [2]) were 53 nM, < 1 nM and 300 nM, respectively. In the data set on Mus musculus, this molecule returned an inhibition in vivo at 50 mg/kg of 0%. In [1], the Ki amounted to 220 nM.
